Assay results published in patent US20030121069A1, “Disruption of the phosphodiesterase 10 gene” (Pfizer Inc., priority 2001, published 2003).
Where two headings read alike, the source gives them in different places.

Experiments:
[1] = tested on: PDE10A+/+ and −/− mice; experiment: Conditioned avoidance responding in PDE10A+/+ and −/− mice; conditions: for ED50: Mus musculus
Text: In the conditioned avoidance paradigm, animals are trained to move from a dark chamber in a shuttle box to a lighted chamber upon presentation of a conditioned stimulus in order to avoid a foot shock.
The conditioned avoidance shuttle chambers consist of individual Plexiglas behavior chambers (Coulbourn Instruments); each chamber divided by a guillotine door into two sides enclosed in sound attenuating cabinets. The Plexiglas chambers are fitted with metal grid floors, which are equipped with scrambled/constant current shockers. Mice are trained to avoid the onset of footshock (0.6 miliampere) by moving to the opposite side of the chamber upon activation of house lights, que lights, and the opening of the guillotine door, all of which occur 5 seconds prior to the foot shock. A computer program is used to record the number of successful avoidance responses (animals cross before onset of shock), as well as the number of escapes (where animals receive the foot shock and then cross), escape failures (where animals receive the foot shock yet still fail to cross), and the latencies to avoid (max 5 sec.) or escape (max.10 sec.) Thirty trials are completed per daily session, and inter-trial intervals are 15 seconds with the guillotine door closed. […] Vehicle treatment is performed one day every week and statistical analysis is done comparing each drug treatment on separate days vs. the vehicle treatment that week. Testing is performed during the lights on period of the light/dark cycle, typically between 8 am and 11 am. The data is analyzed using a paired t-test.

[2] = tested on: PDE10A; conditions: cited from earlier work
[3] = tested on: PDE10A; experiment: cGMP level in striatal and cortical extracts of PDE10A+/+ and −/− mice after Papaverine (enzyme immunoassay); format: in vivo; conditions: PDE10A −/− mice, 32 mg/kg intraperitoneally, 15 minutes, vs vehicle
Method: (§1) Fifteen minutes afterwards, mice were euthanized by focused-beam microwave irradiation of the head (2 second exposure in a Litton Systems 70/50 microwave, model BN-K2, General Medical Engineering Corp., Peabody, Mass.) to prevent enzymatic degradation of cyclic nucleotides. Striatal and cortical regions were isolated and stored at −80° C. until analysis. Samples were homogenized in 0.5 N HCl and then centrifuged at 20,000×g for 30 minutes. The cGMP concentrations in the supernatants were determined using enzyme immunoassay kits (Cayman Chemical, Ann Arbor, Mich., USA) according to the manufacturer's instructions.

[4] = target: T1, PDE10A (Mus musculus, UniProt Q8CA95); experiment: as above; format: in vivo; conditions: PDE10A+/+ mice, 32 mg/kg intraperitoneally, 15 minutes, vs vehicle
T1 construct: from tissue; host or cells: mouse brain in vivo (striatum and cortex); DBA/1LacJ-derived PDE10A +/+ and −/− mice
T1 sequence (Q8CA95 1-779 isoform Q8CA95-2): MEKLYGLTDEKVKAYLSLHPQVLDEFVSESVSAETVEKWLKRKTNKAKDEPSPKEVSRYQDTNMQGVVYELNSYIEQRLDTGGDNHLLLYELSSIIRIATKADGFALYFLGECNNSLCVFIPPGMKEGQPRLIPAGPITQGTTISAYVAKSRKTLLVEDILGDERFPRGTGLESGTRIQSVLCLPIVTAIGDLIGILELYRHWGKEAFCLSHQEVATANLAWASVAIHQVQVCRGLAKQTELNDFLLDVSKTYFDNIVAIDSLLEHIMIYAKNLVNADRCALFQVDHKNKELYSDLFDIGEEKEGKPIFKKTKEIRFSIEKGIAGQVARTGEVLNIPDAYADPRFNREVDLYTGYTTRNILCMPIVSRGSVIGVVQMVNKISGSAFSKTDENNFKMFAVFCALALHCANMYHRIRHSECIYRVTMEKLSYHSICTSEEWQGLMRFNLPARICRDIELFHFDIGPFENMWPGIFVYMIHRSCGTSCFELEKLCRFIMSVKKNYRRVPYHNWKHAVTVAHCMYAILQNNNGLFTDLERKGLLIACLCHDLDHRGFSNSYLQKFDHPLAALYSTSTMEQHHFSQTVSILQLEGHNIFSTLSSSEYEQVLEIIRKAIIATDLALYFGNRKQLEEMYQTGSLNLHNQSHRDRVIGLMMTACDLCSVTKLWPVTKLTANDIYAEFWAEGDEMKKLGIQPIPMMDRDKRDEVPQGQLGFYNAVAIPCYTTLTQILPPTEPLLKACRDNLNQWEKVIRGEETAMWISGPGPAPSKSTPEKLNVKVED
Method: as §1

[5] = read-out: ED50, inhibition of conditioned avoidance responding, PDE10A+/+ mice

Structure (SMILES) | ED50 ([1]; read-out: ED50, inhibition of conditioned avoidance responding, PDE10A −/− mice) | ED50 [1, 5] | Vmax for cGMP over cAMP [2] | Km ([2]; read-out: Km (affinity of PDE10A for substrate)) | inhibition of conditioned avoidance responding ([1]; PDE10A −/− mice, doses up to 56 mg/kg) | effect on escape failures ([1]; PDE10A+/+ mice, highest dose tested (56 mg/kg)) | striatal cGMP level [3] | cGMP level from striatal extracts [4] | cGMP level in cortical extracts [4]
O=C(CCCN1CCC(O)(c2ccc(Cl)cc2)CC1)c1ccc(F)cc1 [Haloperidol] | 0.29 mg/kg | 0.21 mg/kg |  |  |  |  |  |  | 
Nc1nc2c(ncn2[C@@H]2O[C@@H]3COP(=O)(O)O[C@H]3[C@H]2O)c(=O)[nH]1 [cGMP, cyclic guanine 3′5′-monophosphate] |  |  | approximately 5 fold | 3 µM |  |  |  |  | 
COc1ccc(Cc2nccc3cc(OC)c(OC)cc23)cc1OC [Papaverine] |  | 20.7 mg/kg |  |  | failed to inhibit | no effect | only a slight increase | more than two fold elevation | no effect
